Laboratory results: US10124004B2, “Pyrido[3,4-d]pyrimidine derivative and pharmaceutically acceptable salt thereof” (Teijin Pharma Limited, priority 2015, dated 2018)

Legend:
CDK4/cyclin D3 = target: T1, CDK4/cyclin D3 (Homo sapiens, UniProt P11802); assay: Human CDK4/cyclin D3 inhibitory activity (QS S Assist CDK4/Cyclin D3_FP Kit, IMAP fluorescence polarization); format: biochemical; conditions: Human CDK4/cyclin D3 inhibitory activity; read-out: CDK4 Activity symbol
T1 construct: purchased Carna Biosciences, Inc. QS S Assist CDK4/Cyclin D3_FP Kit
T1 sequence (P11802 whole entry): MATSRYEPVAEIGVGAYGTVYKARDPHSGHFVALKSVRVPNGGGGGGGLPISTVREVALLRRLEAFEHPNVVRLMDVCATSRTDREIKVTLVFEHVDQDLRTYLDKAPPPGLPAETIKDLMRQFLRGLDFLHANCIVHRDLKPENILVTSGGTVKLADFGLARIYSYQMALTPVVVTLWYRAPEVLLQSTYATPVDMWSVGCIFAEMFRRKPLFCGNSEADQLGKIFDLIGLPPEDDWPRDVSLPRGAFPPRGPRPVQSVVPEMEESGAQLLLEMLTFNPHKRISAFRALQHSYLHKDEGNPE
T1 sequence (P30281 whole entry partner): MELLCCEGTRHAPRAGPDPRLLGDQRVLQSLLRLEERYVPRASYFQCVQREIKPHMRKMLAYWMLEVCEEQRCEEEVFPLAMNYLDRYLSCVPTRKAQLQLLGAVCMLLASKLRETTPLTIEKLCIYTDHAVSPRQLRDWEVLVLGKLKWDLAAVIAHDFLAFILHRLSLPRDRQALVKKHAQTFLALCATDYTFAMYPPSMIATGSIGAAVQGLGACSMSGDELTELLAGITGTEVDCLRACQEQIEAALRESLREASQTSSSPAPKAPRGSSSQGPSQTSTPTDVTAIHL
Method in brief: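 IMAP fluorescence-polarization kinase assay with kit ATP/substrate/metal mix and 12.5 to 25 ng/well enzyme in 20 mM HEPES pH 7.4, 0.01% Tween20, 2 mM DTT. Reaction ran 45 min at room temperature, then binding reagent was added for 30 min in the dark. IC50 was taken from dose-response fits of percent inhibition.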

CDK2/cyclin A2 = target: T2, CDK2/cyclin A2 (Homo sapiens, UniProt P24941); assay: Human CDK2/cyclin A2 inhibitory activity (QS S Assist CDK2/Cyclin A2_FP Kit, IMAP fluorescence polarization); format: biochemical; conditions: Human CDK2/cyclin A2 inhibitory activity; read-out: CDK2 Activity symbol
T2 construct: purchased Carna Biosciences, Inc. QS S Assist CDK2/Cyclin A2_FP Kit
Method in brief: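 Kinase activity read as fluorescence polarization (485/535 nm) after phosphorylated fluorescent substrate binds IMAP reagent (30 min, RT, dark). Enzyme (2.5 ng/well) reacted 60 min at RT with ATP/substrate/metal in HEPES pH 7.4 buffer with Tween 20 and DTT; no-enzyme wells define 0% activity; IC50 by curve fit.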

SMILES | IC50 (CDK4/cyclin D3) [nM] | IC50 (CDK2/cyclin A2) [nM]
CO[C@H](C)c1cc2cnc(Nc3ccc(CN4CCNCC4)cn3)nc2c(NC2CCOCC2)n1 [Compound 291] | < 10 | ≥ 100
COCC(C)(C)Nc1nc([C@@H](C)O)cc2cnc(Nc3ccc(CN4CC[C@@H](F)C4)cn3)nc12 [Compound 292] | 10 to 100 | ≥ 100
COCC(C)(C)Nc1nc([C@@H](C)O)cc2cnc(Nc3ccc(CN4CCCOCC4)cn3)nc12 [Compound 293] | < 10 | ≥ 100
COCC(C)(C)Nc1nc([C@@H](C)O)cc2cnc(Nc3ccc(CN4CCC(OC)CC4)cn3)nc12 [Compound 294] | < 10 | ≥ 100
COCC(C)(C)Nc1nc([C@@H](C)O)cc2cnc(Nc3ccc(CN4CCn5ccnc5C4)cn3)nc12 [Compound 295] | 10 to 100 | ≥ 100
COCC(C)(C)Nc1nc([C@@H](C)O)cc2cnc(Nc3ccc(CN4CCc5nc(C)[nH]c5C4)cn3)nc12 [Compound 296] | ≥ 100 | ≥ 100
CNC(=O)C1CCN(Cc2ccc(Nc3ncc4cc([C@@H](C)O)nc(NC(C)(C)COC)c4n3)nc2)CC1 [Compound 297] | < 10 | ≥ 100
COCC(C)(C)Nc1nc([C@@H](C)O)cc2cnc(Nc3ccc(CN4CCOCC4(C)C)cn3)nc12 [Compound 298] | 10 to 100 | ≥ 100
COCC(C)(C)Nc1nc([C@@H](C)O)cc2cnc(Nc3ccc(CN4CCN(CC(F)F)CC4)cn3)nc12 [Compound 299] | 10 to 100 | ≥ 100
CO[C@H](C)c1cc2cnc(Nc3ccc(CN4CCNCC4)cn3)nc2c(N[C@@H]2CCCOC2)n1 [Compound 301] | < 10 | ≥ 100
CO[C@H](C)c1cc2cnc(Nc3ccc(CN4CCNCC4)cn3)nc2c(N[C@@H]2CCOC2)n1 [Compound 303] | < 10 | ≥ 100
CO[C@H](C)c1cc2cnc(Nc3ccc(N4CCNCC4)nn3)nc2c(N[C@@H]2CCCOC2)n1 [Compound 305] | < 10 | ≥ 100
CO[C@H](C)c1cc2cnc(Nc3ccc(N4CCNCC4)nn3)nc2c(N[C@H]2CCOC2)n1 [Compound 306] | 10 to 100 | ≥ 100
CO[C@H](C)c1cc2cnc(Nc3ccc(N4CCNCC4)nn3)nc2c(N[C@@H]2CCOC2)n1 [Compound 307] | < 10 | ≥ 100
C[C@@H](O)c1cc2cnc(Nc3ccc(N4CCNCC4)nn3)nc2c(NC2CCCCC2C(=O)O)n1 (some centres unmarked) [Compound 308] | ≥ 100 | ≥ 100
C[C@@H](O)c1cc2cnc(Nc3ccc(N4CCNCC4)nn3)nc2c(NC2CCCC2C(=O)O)n1 (some centres unmarked) [Compound 309] | ≥ 100 | ≥ 100
CCO[C@H](C)c1cc2cnc(Nc3ccc(N4CCNCC4)nn3)nc2c(NC(C)C)n1 [Compound 310] | < 10 | ≥ 100
CO[C@H](C)c1cc2cnc(Nc3ccc(C4CCNCC4)nn3)nc2c(NC(C)C)n1 [Compound 311] | < 10 | ≥ 100
C[C@@H](O)c1cc2cnc(Nc3ccc(CN4CCNCC4)cn3)nc2c(NCC2CCOCC2)n1 [Compound 312] | < 10 | ≥ 100
C[C@@H](O)c1cc2cnc(Nc3ccc(N4CCNCC4)nn3)nc2c(NCC2CCOCC2)n1 [Compound 313] | < 10 | ≥ 100

SMILES | IC50 (CDK4/cyclin D3) [nM] | IC50 (CDK2/cyclin A2) [nM]
C[C@@H](O)c1cc2cnc(Nc3ccc(CN4CCNCC4)cn3)nc2c(NC2CCS(=O)(=O)CC2)n1 [Compound 314] | < 10 | ≥ 100
C[C@@H](O)c1cc2cnc(Nc3ccc(N4CCNCC4)nn3)nc2c(NC(C)(C)C(=O)O)n1 [Compound 315] | ≥ 100 | ≥ 100
C[C@@H](O)c1cc2cnc(Nc3ccc(N4CCNCC4)nn3)nc2c(NC2(C(=O)O)CCCC2)n1 [Compound 316] | ≥ 100 | ≥ 100
C[C@@H](O)c1cc2cnc(Nc3ccc(C4CCNCC4)nn3)nc2c(NC2CCOCC2)n1 [Compound 317] | < 10 | ≥ 100
CC(C)Nc1nc([C@@H](C)O)cc2cnc(Nc3ccc(C4CCNCC4)nn3)nc12 [Compound 318] | < 10 | ≥ 100
CC(C)Nc1nc([C@@H](C)O)cc2cnc(Nc3ccc(N4CCN(C=O)CC4=O)cn3)nc12 [Compound 319] | < 10 | ≥ 100
CO[C@H](C)c1cc2cnc(Nc3ccc(CN4CCNCC4)cn3)nc2c(NCC2CCOC2)n1 (some centres unmarked) [Compound 320] | < 10 | ≥ 100
CO[C@H](C)c1cc2cnc(Nc3ccc(N4CCNCC4)nn3)nc2c(NCC2CCOC2)n1 (some centres unmarked) [Compound 321] | < 10 | ≥ 100
C[C@@H](O)c1cc2cnc(Nc3ccc(N4CCNCC4)nn3)nc2c(NC2CCS(=O)(=O)CC2)n1 [Compound 322] | 10 to 100 | ≥ 100
C[C@@H](O)c1cc2cnc(Nc3ccc(CN4CCNCC4)cn3)nc2c(NCC2CCOC2)n1 (some centres unmarked) [Compound 323] | < 10 | ≥ 100
C[C@@H](O)c1cc2cnc(Nc3ccc(CN4CCNCC4)cn3)nc2c(NC2CCCC2C(=O)O)n1 (some centres unmarked) [Compound 324] | ≥ 100 | ≥ 100
C[C@@H](O)c1cc2cnc(Nc3ccc(CN4CCNCC4)cn3)nc2c(NC2(C(=O)O)CCCC2)n1 [Compound 325] | 10 to 100 | ≥ 100
C[C@@H](O)c1nc(NC2CCOCC2)c2nc(Nc3ccc(CN4CCNCC4)cn3)ncc2c1Cl [Compound 326] | < 10 | ≥ 100
C[C@@H](O)c1cc2cnc(Nc3ccc(N4CCNCC4)nn3)nc2c(NC(C)(C)CC(=O)O)n1 [Compound 327] | 10 to 100 | ≥ 100
CC(=O)c1cc2cnc(Nc3ccc(N4CCNCC4)nn3)nc2c(NC(C)C)n1 [Compound 328] | < 10 | ≥ 100
CC(=O)c1cc2cnc(Nc3ccc(CN4CCNCC4)cn3)nc2c(NC(C)C)n1 [Compound 329] | < 10 | ≥ 100
CC(=O)c1cc2cnc(Nc3ccc(N4CCNCC4)nn3)nc2c(NC2CCOCC2)n1 [Compound 330] | < 10 | ≥ 100
CO[C@H](C)c1cc2cnc(Nc3ccc(-c4cccnc4)cn3)nc2c(NC(C)C)n1 [Compound 331] | ≥ 100 | ≥ 100
CO[C@H](C)c1cc2cnc(Nc3ccc(C4CCCNC4)cn3)nc2c(NC(C)C)n1 (some centres unmarked) [Compound 332] | < 10 | ≥ 100
COCC(C)(C)Nc1nc([C@@H](C)O)cc2cnc(Nc3ccc(C4CCCNC4)cn3)nc12 (some centres unmarked) [Compound 333] | < 10 | ≥ 100

SMILES | IC50 (CDK4/cyclin D3) [nM] | IC50 (CDK2/cyclin A2) [nM]
CO[C@H](C)c1cc2cnc(Nc3ccc(N4CCC(O)C4)nn3)nc2c(NC(C)C)n1 (some centres unmarked) [Compound 334] | 10 to 100 | ≥ 100
CO[C@H](C)c1cc2cnc(Nc3ccc(N4CCN(C(=O)CO)CC4)nn3)nc2c(NC(C)C)n1 [Compound 335] | < 10 | ≥ 100
CO[C@H](C)c1cc2cnc(Nc3ccc(NC4CCNCC4)nn3)nc2c(NC(C)C)n1 [Compound 336] | < 10 | ≥ 100
C[C@@H](O)c1nc(NC2CCOCC2)c2nc(Nc3ccc(N4CCNCC4)nn3)ncc2c1Cl [Compound 337] | < 10 | ≥ 100
C[C@@H](O)c1cc2cnc(Nc3ccc(N4CCNCC4)nn3)nc2c(N[C@H]2CC[C@H](C(=O)O)CC2)n1 [Compound 338] | < 10 | ≥ 100
CO[C@H](C)c1cc2cnc(Nc3ccc(N4CCNCC4)nn3)nc2c(N[C@H]2CC[C@H](C(=O)O)CC2)n1 [Compound 339] | 10 to 100 | ≥ 100
C[C@@H](O)c1cc2cnc(Nc3ccc(N4CCNCC4)nn3)nc2c(N[C@H]2CC[C@H](O)CC2)n1 [Compound 340] | < 10 | ≥ 100
CO[C@H](C)c1cc2cnc(Nc3ccc(N4CCNCC4)nn3)nc2c(N[C@H]2CC[C@H](O)CC2)n1 [Compound 341] | < 10 | ≥ 100
C[C@@H](O)c1cc2cnc(Nc3ccc(CN4CCNCC4)cn3)nc2c(N[C@H]2CC[C@H](C(=O)O)CC2)n1 [Compound 342] | < 10 | ≥ 100
CO[C@H](C)c1cc2cnc(Nc3ccc(CN4CCNCC4)cn3)nc2c(N[C@H]2CC[C@H](C(=O)O)CC2)n1 [Compound 343] | < 10 | ≥ 100
C[C@@H](O)c1cc2cnc(Nc3ccc(CN4CCNCC4)cn3)nc2c(N[C@H]2CC[C@H](O)CC2)n1 [Compound 344] | < 10 | ≥ 100
CO[C@H](C)c1cc2cnc(Nc3ccc(CN4CCNCC4)cn3)nc2c(N[C@H]2CC[C@H](O)CC2)n1 [Compound 345] | < 10 | ≥ 100
CC(O)c1cc2cnc(Nc3ccc(N4CCNCC4=O)cn3)nc2c(NC2CCCOC2)n1 (centres unmarked) [Compound 346] | < 10 | ≥ 100
C[C@@H](O)c1cc2cnc(Nc3ccc(N4CCNCC4=O)cn3)nc2c(N[C@H]2CCCOC2)n1 [Compound 347] | < 10 | ≥ 100
C[C@@H](O)c1cc2cnc(Nc3ccc(N4CCNCC4=O)cn3)nc2c(N[C@@H]2CCOC2)n1 [Compound 348] | < 10 | ≥ 100
C[C@@H](O)c1cc2cnc(Nc3ccc(N4CCNCC4=O)cn3)nc2c(N[C@H]2CCOC2)n1 [Compound 349] | 10 to 100 | ≥ 100
C[C@@H](O)c1cc2cnc(Nc3ccc(N4CCNCC4=O)cn3)nc2c(NC2CCOCC2)n1 [Compound 350] | < 10 | ≥ 100
C[C@@H](O)c1cc2cnc(Nc3ccc(N4CCN(C=O)CC4=O)cn3)nc2c(N[C@@H]2CCCOC2)n1 [Compound 351] | < 10 | ≥ 100
